Data reported in patent publication US7888389B2 (The Regents of the University of Michigan, priority 2002, dated 2011).
“Also recorded” adds a separate entry of the source.

Legend:
[1] = human, in vivo; cited from earlier work
[2] = in vivo; cited from earlier work
[3] = cited from earlier work
[4] = cited from earlier work; remark: listed apart in the source
breast cancer cells = test: Human breast cancer xenograft growth in athymic nude mice; format: in vivo
Description: FIG. 5. […] 10^6 breast cancer cells were injected in the mammary fat pad of 4 groups of athymic, nude mice (5 mice per group). Control mice received no treatment.
In this study, 10^6 breast cancer cells were injected in the mammary fat pad of 4 groups of athymic, nude mice (5 mice per group). Control mice received no treatment.

copper-albumin = copper-albumin (Homo sapiens, UniProt P02768); settings: in vitro
Sequence of copper-albumin (P02768 25-609): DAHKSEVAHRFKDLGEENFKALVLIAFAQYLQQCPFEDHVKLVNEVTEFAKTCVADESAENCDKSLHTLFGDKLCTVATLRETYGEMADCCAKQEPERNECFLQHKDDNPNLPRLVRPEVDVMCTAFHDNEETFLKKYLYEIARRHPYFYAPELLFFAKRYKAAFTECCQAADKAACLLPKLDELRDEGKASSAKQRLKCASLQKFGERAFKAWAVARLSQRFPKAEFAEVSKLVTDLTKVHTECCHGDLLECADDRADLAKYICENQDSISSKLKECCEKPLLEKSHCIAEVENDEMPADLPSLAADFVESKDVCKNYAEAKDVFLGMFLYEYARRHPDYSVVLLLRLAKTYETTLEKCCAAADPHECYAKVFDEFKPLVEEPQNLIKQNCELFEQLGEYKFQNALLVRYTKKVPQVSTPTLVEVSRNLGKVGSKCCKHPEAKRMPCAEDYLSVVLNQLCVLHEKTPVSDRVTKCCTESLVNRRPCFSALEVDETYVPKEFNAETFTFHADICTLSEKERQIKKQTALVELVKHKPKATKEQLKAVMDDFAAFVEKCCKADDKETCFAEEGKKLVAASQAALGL

[5] = therapeutic dose 1,000-2,000 mg/day

NC(=O)c1nnn(Cc2cc(Cl)c(C(=O)c3ccc(Cl)cc3)c(Cl)c2)c1N [CAI, carboxyamidotriazole]
disease stabilization in cancer patients having progressive disease before treatment [1]: 49%

CC(C)(S)[C@@H](N)C(=O)O [penicillamine]
initial hypersensitivity syndrome [2]: about a quarter to a third of patients

NCCNCCNCCN [trientine]
patients with proteinuria ([3]; after several weeks of use): about 20% | cupruresis after the first few weeks of therapy [3, 5]: 2 to 3 mg | initial cupruresis [3, 5]: 4 to 5 mg

CC(=O)[O-].CC(=O)[O-].[Zn+2] [zinc, zinc acetate]
toxicity ([4]; 150 mg daily, 200 Wilson's disease patients): no toxicity at all | copper balance induced ([4]; at the two week point): −0.35 mg daily | time to bring urine copper and nonceruloplasmin plasma copper to subtoxic levels ([4]; in vivo): as long as six months | time to intestinal metallothionein induction and negative copper balance ([4]; in vivo): approximately two weeks

tetrapropylammonium tetrathiomolybdate [TP-TM]
tumor growth curves versus control animals (breast cancer cells; TM 1 mg/day, TP-TM 1 mg/day and 1.5 mg/day, p<0.01 vs control): effectively inhibiting tumor growth | TP-TM tumor growth inhibition compared with TM (breast cancer cells; TP-TM 1 and 1.5 mg/day vs AmmTM 1 mg/day): indistinguishable from that of AmmTM; also recorded: at least as effective as TM; also recorded: statistically indistinguishable from the TM curves | copper-albumin-TM tripartite binding (copper-albumin): show the standard copper-albumin-TM tripartite binding
